Experimental data taken from patent publication US12029217B2, “Safened compositions comprising pyridine carboxylate herbicides and isoxadifen” (Corteva Agriscience LLC, priority 2018, dated 2024).

Legend:
Assay type in all cases: in vivo
[1] = test system: Echinochloa crus-galli (barnyardgrass); experiment: Greenhouse postemergence visual injury, barnyardgrass (ECHCG)
Description: (§1) Seeds of the desired test plant species were planted in a 90:10% v/v (volume/volume) mixture of PRO-MIX® BX (Premier Tech Horticulture, Quakertown, PA, USA) and PROFILE® GREENS GRADE™ (Profile Products LLC, Buffalo Grove, IL, USA) planting mixture, which typically has a pH of 5.2 to 6.2 and an organic matter content of at least 50 percent, in plastic pots with a surface area of 103.2 square centimeters (cm^2). When required to ensure good germination and healthy plants, a fungicide treatment and/or other chemical or physical treatment was applied. The plants were grown for 7-36 days (d) in a greenhouse with an approximate 14-hour (h) photo-period which was maintained at about 23° C. during the day and 22° C. during the night. Nutrients and water were added on a regular basis and supplemental lighting was provided with overhead metal halide 1000-Watt lamps as necessary. The plants were employed for testing when they reached the second or third true leaf stage.
(§2) Emulsifiable concentrates of each of each pyridine carboxylate herbicide (Compound A or Compound B) were prepared at 100 grams acid equivalent per liter (g ae/L). An aliquot of each emulsifiable concentrate was placed in a 25 mL glass vial and diluted with an aqueous mixture of 1.25% (v/v) ACTIROB® B esterified rapeseed oil (Bayer Crop Science, Research Triangle Park, NC, USA) or MSO® Concentrate with LECI-TECH® methylated soybean oil (Loveland Products, Loveland, CO, USA) to obtain concentrated stock solutions at the highest application rate for each herbicide, based upon a 12 milliliter (mL) application volume at a rate of 187 liters per hectare (L/ha). The concentrated stock solutions were further diluted with an aqueous mixture of 1.25% v/v ACTIROB® B or MSO® Concentrate with LECI-TECH® to obtain stock solutions at reduced application rates for each herbicide. Spray solutions of the herbicide combinations (Compound A or Compound B plus safener) were prepared by adding weighed amounts or aliquots of the safener to the stock solutions of Compound A or Compound B to form 12-mL spray solutions in two-way combinations.
(§3) The spray solutions were applied to the plant material with an overhead Mandel track sprayer equipped with 8002E nozzles calibrated to deliver 187 L/ha over an application area of 0.503 square meters (m^2) at a spray height of 18 inches (43 centimeters (cm)) above the average plant canopy. Control plants were sprayed in the same manner with the solvent blank. All herbicide (component a) application rates are given as “g ae/ha” and all safener (component b) application rates are given as “g ai/ha.”
(§4) The treated plants and control plants were placed in a greenhouse as described above and watered by sub-irrigation to prevent wash-off of the test compounds. After 20-22 d, the condition of the test plants as compared with that of the control plants was determined visually and scored on a scale of 0 to 100 percent where 0 corresponds to no injury and 100 corresponds to complete kill.

[2] = test system: Brassica napus (winter rape); experiment: Greenhouse postemergence visual injury, winter rape (BRSNW)
Description: as §1, §2, §3, §4

[3] = test system: Salsola kali (Russian thistle); experiment: Greenhouse postemergence visual injury, Russian thistle (SASKR); conditions: Example 1
Description: as §1, §2
(§5) The spray solutions were applied to the plant material with an overhead Mandel track sprayer equipped with 8002E nozzles calibrated to deliver 187 L/ha over an application area of 0.503 square meters (m^2) at a spray height of 18 inches (43 centimeters (cm)) above the average plant canopy. […]
as §4

[4] = test system: Glycine max (soybean); experiment: Greenhouse postemergence visual injury, soybean (GLXMA)
Description: as §1, §2, §3, §4

[5] = test system: Hordeum vulgare (spring barley); experiment: Greenhouse postemergence visual injury, spring barley (HORVS)
Description: as §1, §2, §3, §4

[6] = test system: Setaria faberi (giant foxtail); experiment: Greenhouse postemergence visual injury, giant foxtail (SETFA)
Description: as §1, §2, §3, §4

[7] = test system: Saccharum officinarum (sugarcane); experiment: Greenhouse postemergence visual injury, sugarcane (SACOF); conditions: Example 3
Description: as §1, §2, §3, §4

[8] = test system: Ipomoea hederacea (ivyleaf morningglory); experiment: Greenhouse postemergence visual injury, ivyleaf morningglory (IPOHE); conditions: Example 6
Description: as §1, §2, §5, §4

[9] = test system: Viola tricolor (wild pansy); experiment: Greenhouse postemergence visual injury, wild pansy (VIOTR); conditions: Example 6
Description: as §1, §2, §5, §4

[10] = test system: Chenopodium album L. (common lambsquarters); experiment: Greenhouse postemergence visual injury, common lambsquarters (CHEAL); conditions: Example 6
Description: as §1, §2, §5, §4

[11] = test system: Erigeron canadensis (Canada horseweed); experiment: Greenhouse postemergence visual injury, Canada horseweed (ERICA)
Description: as §1, §2, §3, §4

[12] = test system: Alopecurus myosuroides (blackgrass); experiment: Greenhouse postemergence visual injury, blackgrass (ALOMY); conditions: Example 6
Description: as §1, §2, §5, §4

[13] = test system: Zea mays (maize); experiment: Greenhouse postemergence visual injury, maize (ZEAMX)
Description: as §1, §2, §3, §4

[14] = test system: Matricaria chamomilla (wild chamomile); experiment: Greenhouse postemergence visual injury, wild chamomile (MATCH); conditions: Example 1
Description: as §1, §2, §5, §4

[15] = test system: Helianthus annuus (common sunflower); experiment: Greenhouse postemergence visual injury, common sunflower (HELAN)
Description: as §1, §2, §3, §4

[16] = test system: Leptochloa chinensis (Chinese sprangletop); experiment: Greenhouse postemergence visual injury, Chinese sprangletop (LEFCH); conditions: Example 6
Description: as §1, §2, §5, §4

[17] = isoxadifen-ethyl 10 g/ha, Example 7
[18] = isoxadifen-ethyl 20 g/ha, Example 6
[19] = isoxadifen-ethyl 20 g/ha, Example 7
[20] = isoxadifen-ethyl 40 g/ha, Example 6
[21] = isoxadifen-ethyl 80 g/ha, Example 6
[22] = isoxadifen-ethyl 10 g/ha, Example 1
[23] = isoxadifen-ethyl 20 g/ha, Example 1
[24] = isoxadifen-ethyl 40 g/ha, Example 1
[25] = isoxadifen-ethyl 20 g/ha, Example 5
[26] = isoxadifen-ethyl 40 g/ha, Example 5
[27] = isoxadifen-ethyl 80 g/ha, Example 5
[28] = isoxadifen-ethyl 120 g/ha, Example 5

## N#CCOC(=O)c1nc(-c2ccc3cc[nH]c3c2F)c(F)c(N)c1Cl [Compound A, cyanomethyl 4-amino-3-chloro-5-fluoro-6-(7-fluoro-1H-indol-6-yl)pyridine-2-carboxylate]
[1]; Compound A 10 g/ha, Example 7
  % visual injury, Ob: 100%
[1]; Compound A 20 g/ha, Example 6
  % visual injury, Ob: 85%
[1]; Compound A 20 g/ha, Example 7
  % visual injury, Ob: 100%
[2]; Compound A 20 g/ha, Example 1
  % visual injury, Ob: 95%
[2]; Compound A 20 g/ha, Example 6
  % visual injury, Ob: 85%
[3]; Compound A 20 g/ha
  % visual injury, Ob: 60%
[4]; Compound A 10 g/ha, Example 7
  % visual injury, Ob: 100%
[4]; Compound A 20 g/ha, Example 6
  % visual injury, Ob: 100%
[4]; Compound A 20 g/ha, Example 7
  % visual injury, Ob: 100%
[5]; Compound A 20 g/ha, Example 1
  % visual injury, Ob: 0%
[5]; Compound A 40 g/ha, Example 2
  % visual injury, Ob: 17%
[6]; Compound A 10 g/ha, Example 7
  % visual injury, Ob: 85%
[6]; Compound A 20 g/ha, Example 6
  % visual injury, Ob: 65%
[6]; Compound A 20 g/ha, Example 7
  % visual injury, Ob: 95%
[7]; Compound A 5 g/ha
  % visual injury, Ob: 18%
[7]; Compound A 10 g/ha
  % visual injury, Ob: 48%
[7]; Compound A 20 g/ha
  % visual injury, Ob: 55%
[7]; Compound A 40 g/ha
  % visual injury, Ob: 60%
[8]; Compound A 20 g/ha
  % visual injury, Ob: 0%
[9]; Compound A 20 g/ha
  % visual injury, Ob: 30%
[10]; Compound A 20 g/ha
  % visual injury, Ob: 88%
[11]; Compound A 10 g/ha, Example 7
  % visual injury, Ob: 90%
[11]; Compound A 20 g/ha, Example 6
  % visual injury, Ob: 95%
[11]; Compound A 20 g/ha, Example 7
  % visual injury, Ob: 95%
[12]; Compound A 20 g/ha
  % visual injury, Ob: 0%
[13]; Compound A 10 g/ha, Example 7
  % visual injury, Ob: 48%
[13]; Compound A 20 g/ha, Example 6
  % visual injury, Ob: 13%
[13]; Compound A 20 g/ha, Example 7
  % visual injury, Ob: 60%
[13]; Compound A 40 g/ha, Example 5
  % visual injury, Ob: 55%
[14]; Compound A 20 g/ha
  % visual injury, Ob: 50%
[15]; Compound A 20 g/ha, Example 6
  % visual injury, Ob: 95%
[15]; Compound A 40 g/ha, Example 4
  % visual injury, Ob: 100%
[15]; Compound A 40 g/ha, Example 5
  % visual injury, Ob: 100%
[16]; Compound A 20 g/ha
  % visual injury, Ob: 60%

## CCOC(=O)C1=NOC(c2ccccc2)(c2ccccc2)C1 [Isoxadifen-ethyl, isoxadifen-ethyl]
[1]; [17]
  % visual injury, Ob: 0%
[1]; [18]
  % visual injury, Ob: 0%
[1]; [19]
  % visual injury, Ob: 0%
[1]; [20]
  % visual injury, Ob: 0%
[1]; [21]
  % visual injury, Ob: 0%
[2]; [22]
  % visual injury, Ob: 0%
[2]; [23]
  % visual injury, Ob: 0%
[2]; [18]
  % visual injury, Ob: 0%
[2]; [24]
  % visual injury, Ob: 0%
[2]; [20]
  % visual injury, Ob: 0%
[2]; [21]
  % visual injury, Ob: 0%
[3]; isoxadifen-ethyl 10 g/ha
  % visual injury, Ob: 0%
[3]; isoxadifen-ethyl 20 g/ha
  % visual injury, Ob: 0%
[3]; isoxadifen-ethyl 40 g/ha
  % visual injury, Ob: 0%
[4]; [17]
  % visual injury, Ob: 0%
[4]; [18]
  % visual injury, Ob: 0%
[4]; [19]
  % visual injury, Ob: 0%
[4]; [20]
  % visual injury, Ob: 0%
[4]; [21]
  % visual injury, Ob: 0%
[5]; [22]
  % visual injury, Ob: 0%
[5]; [23]
  % visual injury, Ob: 0%
[5]; isoxadifen-ethyl 20 g/ha, Example 2
  % visual injury, Ob: 0%
[5]; [24]
  % visual injury, Ob: 0%
[5]; isoxadifen-ethyl 40 g/ha, Example 2
  % visual injury, Ob: 0%
[5]; isoxadifen-ethyl 80 g/ha, Example 2
  % visual injury, Ob: 0%
[5]; isoxadifen-ethyl 120 g/ha, Example 2
  % visual injury, Ob: 0%
[6]; [17]
  % visual injury, Ob: 0%
[6]; [18]
  % visual injury, Ob: 0%
[6]; [19]
  % visual injury, Ob: 0%
[6]; [20]
  % visual injury, Ob: 0%
[6]; [21]
  % visual injury, Ob: 0%
[7]; isoxadifen-ethyl 10 g/ha
  % visual injury, Ob: 0%
[7]; isoxadifen-ethyl 20 g/ha
  % visual injury, Ob: 0%
[7]; isoxadifen-ethyl 40 g/ha
  % visual injury, Ob: 0%
[7]; isoxadifen-ethyl 80 g/ha
  % visual injury, Ob: 0%
[8]; isoxadifen-ethyl 20 g/ha
  % visual injury, Ob: 0%
[8]; isoxadifen-ethyl 40 g/ha
  % visual injury, Ob: 0%
[8]; isoxadifen-ethyl 80 g/ha
  % visual injury, Ob: 0%
[9]; isoxadifen-ethyl 20 g/ha
  % visual injury, Ob: 0%
[9]; isoxadifen-ethyl 40 g/ha
  % visual injury, Ob: 0%
[9]; isoxadifen-ethyl 80 g/ha
  % visual injury, Ob: 0%
[10]; isoxadifen-ethyl 20 g/ha
  % visual injury, Ob: 0%
[10]; isoxadifen-ethyl 40 g/ha
  % visual injury, Ob: 0%
[10]; isoxadifen-ethyl 80 g/ha
  % visual injury, Ob: 0%
[11]; [17]
  % visual injury, Ob: 0%
[11]; [18]
  % visual injury, Ob: 0%
[11]; [19]
  % visual injury, Ob: 0%
[11]; [20]
  % visual injury, Ob: 0%
[11]; [21]
  % visual injury, Ob: 0%
[12]; isoxadifen-ethyl 20 g/ha
  % visual injury, Ob: 0%
[12]; isoxadifen-ethyl 40 g/ha
  % visual injury, Ob: 0%
[12]; isoxadifen-ethyl 80 g/ha
  % visual injury, Ob: 0%
[13]; [17]
  % visual injury, Ob: 0%
[13]; [25]
  % visual injury, Ob: 0%
[13]; [18]
  % visual injury, Ob: 0%
[13]; [19]
  % visual injury, Ob: 0%
[13]; [26]
  % visual injury, Ob: 0%
[13]; [20]
  % visual injury, Ob: 0%
[13]; [27]
  % visual injury, Ob: 0%
[13]; [21]
  % visual injury, Ob: 0%
[13]; [28]
  % visual injury, Ob: 0%
[14]; isoxadifen-ethyl 10 g/ha
  % visual injury, Ob: 0%
[14]; isoxadifen-ethyl 20 g/ha
  % visual injury, Ob: 0%
[14]; isoxadifen-ethyl 40 g/ha
  % visual injury, Ob: 0%
[15]; isoxadifen-ethyl 20 g/ha, Example 4
  % visual injury, Ob: 0%
[15]; [25]
  % visual injury, Ob: 0%
[15]; [18]
  % visual injury, Ob: 0%
[15]; isoxadifen-ethyl 40 g/ha, Example 4
  % visual injury, Ob: 0%
[15]; [26]
  % visual injury, Ob: 0%
[15]; [20]
  % visual injury, Ob: 0%
[15]; isoxadifen-ethyl 80 g/ha, Example 4
  % visual injury, Ob: 0%
[15]; [27]
  % visual injury, Ob: 0%
[15]; [21]
  % visual injury, Ob: 0%
[15]; isoxadifen-ethyl 120 g/ha, Example 4
  % visual injury, Ob: 0%
[15]; [28]
  % visual injury, Ob: 0%
[16]; isoxadifen-ethyl 20 g/ha
  % visual injury, Ob: 0%
[16]; isoxadifen-ethyl 40 g/ha
  % visual injury, Ob: 0%
[16]; isoxadifen-ethyl 80 g/ha
  % visual injury, Ob: 0%
